assay: method code SF-RC, from PMID: 582926

| SMILES | logP |
| --- | --- |
| CO[C@H]1C[C@H](O[C@H]2CC[C@@]3(C)[C@H](CC[C@@H]4[C@@H]3CC[C@]3(C)[C@@H](C5=CC(=O)OC5)CC[C@]43O)C2)O[C@@H](C)[C@@H]1O | 2.37 |
| C[C@H]1O[C@@H](O[C@H]2CC[C@@]3(C)[C@H](CC[C@@H]4[C@@H]3CC[C@]3(C)[C@@H](C5=CC(=O)OC5)CC[C@]43O)C2)C[C@H](O)[C@@H]1O[C@H]1C[C@H](O)[C@H](O[C@H]2C[C@H](O)[C@H](O[C@@H]3O[C@H](C(=O)O)[C@@H](O)[C@H](O)[C@H]3O)[C@@H](C)O2)[C@@H](C)O1 | -1.1 |
| CC(=O)OC1CC(OC2C(O)CC(OC3C(O)CC(OC4CCC5(C)C(CCC6C5CC(O)C5(C)C(C7=CC(=O)OC7)CCC65O)C4)OC3C)OC2C)OC(C)C1O (stereo not given) | 1.97 |
| CC(=O)OC1CC2(O)C3CCC4CC(O)CCC4(C)C3CCC2(C)C1C1=CC(=O)OC1 (stereo not given) | 1.93 |
| CC1OC(OC2CCC3(C)C(CCC4C3CCC3(C)C(C5=CC(=O)OC5)CCC43O)C2)CC(O)C1O (stereo not given) | 2.48 |
| CC(=O)OC1C[C@@H](OC2C(O)C[C@@H](OC3C(O)C[C@@H](OC4CC[C@@]5(C)[C@H](CC[C@H]6[C@H]5CC(O)[C@]5(C)C(C7=CC(=O)OC7)CC[C@]65O)C4)OC3C)OC2C)OC(C)C1O[C@H]1OC(CO)C(O)C(O)C1O (stereo not given in full) | 0.07 |
| CC1OC(OC2CCC3(C)C(CCC4C3CCC3(C)C(C5=CC(=O)OC5)C(O)CC43O)C2)CC(O)C1O (stereo not given) | 1.76 |
| C[C@]12CC[C@H](O)C[C@H]1CC[C@H]1C3=CC[C@H](C4=CC(=O)OC4)[C@@]3(C)CC[C@@H]12 | 2.52 |
| CO[C@H]1CC(O[C@H]2CC[C@@]3(C)[C@H](CC[C@@H]4[C@@H]3CC[C@]3(C)[C@@H](C5=CC(=O)OC5)[C@@H](OC(C)=O)C[C@]43O)C2)O[C@H](C)C1=O (stereo not given in full) | 1.65 |
| C[C@H]1O[C@@H](O[C@H]2[C@@H](O)C[C@H](O[C@H]3CC[C@@]4(C)[C@@H](CC[C@@H]5[C@@H]4CC[C@]4(C)[C@@H](C6=CC(=O)OC6)CC[C@]54O)C3)O[C@@H]2C)C[C@H](O)[C@@H]1O | 2.15 |
| CC1OC(OC2CCC3(C)C(CCC4C3CC(O)C3(C)C(C5=CC(=O)OC5)CCC43O)C2)CC(O)C1OC1CC(O)C(OC2CC(O)C(OC3OC(C(=O)O)C(O)C(O)C3O)C(C)O2)C(C)O1 (stereo not given) | -1.77 |
| CC1O[C@H](O[C@H]2CC[C@]3(CO)C4CC[C@]5(C)[C@@H](C6=CC(=O)OC6)CC[C@]5(O)C4CC[C@]3(O)C2)C(O)C(O)[C@@H]1O (stereo not given in full) | -0.62 |
| CC(=O)O[C@H]1C[C@H](O[C@H]2[C@@H](O)C[C@H](O[C@H]3[C@@H](O)C[C@H](O[C@H]4CC[C@@]5(C)[C@@H](CC[C@@H]6[C@H]5CC[C@]5(C)[C@@H](C7=CC(=O)OC7)CC[C@]65O)C4)O[C@@H]3C)O[C@@H]2C)O[C@H](C)[C@H]1O[C@@H]1O[C@H](CO)[C@@H](O)[C@H](O)[C@H]1O | 1.23 |
| CO[C@H]1[C@@H](O)C[C@H](O[C@H]2[C@@H](O)C[C@H](O[C@H]3[C@@H](O)C[C@H](O[C@H]4CC[C@@]5(C)[C@H](CC[C@@H]6[C@@H]5C[C@@H](O)[C@]5(C)[C@@H](C7=CC(=O)OC7)CC[C@]65O)C4)O[C@@H]3C)O[C@@H]2C)O[C@@H]1C | 1.73 |
| CO[C@H]1CC(O[C@H]2CC[C@@]3(C)[C@H](CC[C@@H]4[C@@H]3CC[C@]3(C)[C@@H](C5=CC(=O)OC5)[C@@H](OC(C)=O)C[C@]43O)C2)O[C@@H](C)[C@@H]1OC(C)=O (stereo not given in full) | 2.95 |

assay: method code SF-CR, from PMID: 582926

| SMILES | logP |
| --- | --- |
| CO[C@H]1[C@H](O)[C@H](O[C@H]2CC[C@@]3(C=O)[C@H](CC[C@@H]4[C@@H]3CC[C@]3(C)[C@@H](C5=CC(=O)OC5)CC[C@]43O)C2)O[C@@H](C)[C@@H]1O | 1.05 |
| CC(=O)O[C@H]1C[C@H](O[C@H]2CC[C@@]3(C)[C@H](CC[C@@H]4[C@@H]3C[C@@H](O)[C@]3(C)[C@@H](C5=CC(=O)OC5)CC[C@]43O)C2)O[C@H](C)[C@H]1O[C@H]1C[C@H](OC(C)=O)[C@H](O[C@H]2C[C@H](O)[C@H](O)[C@@H](C)O2)[C@@H](C)O1 | 2.45 |
| CC(=O)O[C@H]1C[C@]2(O)[C@@H]3CC[C@@H]4C[C@@H](O[C@H]5C[C@H](O)[C@H](O[C@H]6C[C@H](O)[C@H](O[C@H]7C[C@H](O)[C@H](O)[C@@H](C)O7)[C@@H](C)O6)[C@@H](C)O5)CC[C@]4(C)[C@H]3CC[C@]2(C)[C@H]1C1=CC(=O)OC1 | 2.15 |
| CC12CCC(OC3OC(CO)C(O)C(O)C3O)CC1CCC1C2CCC2(C)C(C3=CC(=O)OC3)CCC12O (stereo not given) | -0.64 |
| C[C@@H]1O[C@@H](O[C@H]2CC[C@]3(C=O)[C@H]4CC[C@]5(C)[C@@H](C6=CC(=O)OC6)CC[C@]5(O)[C@@H]4CC[C@]3(O)C2)[C@H](O)[C@H](O)[C@H]1O | -0.48 |
| C[C@@H]1O[C@@H](O[C@H]2CC[C@@]3(C)[C@H](CC[C@@H]4[C@@H]3CC[C@]3(C)[C@@H](C5=CC(=O)OC5)CC[C@]43O)C2)[C@H](O)[C@H](O)[C@H]1O | 2.1 |
| CO[C@H]1C[C@H](O[C@H]2CCC3(CO)C4CCC5(C)[C@@H](C6=CC(=O)OC6)CCC5(O)C4CCC3(O)C2)O[C@H](C)[C@H]1O (stereo not given in full) | 0.56 |
| CC1OC(OC2CCC3(CO)C4CCC5(C)C6(C=CC(=O)OC6)CCC5(O)C4CCC3(O)C2)CC(O)C1O (stereo not given) | 0.15 |
| CC(=O)O[C@H]1[C@@H](OC(C)=O)C[C@H](O[C@H]2[C@@H](OC(C)=O)C[C@H](O[C@H]3[C@@H](OC(C)=O)C[C@H](O[C@H]4CC[C@@]5(C)[C@H](CC[C@@H]6[C@@H]5CC[C@]5(C)[C@@H](C7=CC(=O)OC7)[C@@H](OC(C)=O)C[C@]65O)C4)O[C@@H]3C)O[C@@H]2C)O[C@@H]1C | 2.85 |
| C[C@H]1O[C@@H](O[C@H]2[C@@H](O)C[C@H](O[C@H]3[C@@H](O)C[C@H](O[C@H]4CC[C@@]5(C)[C@H](CC[C@@H]6[C@@H]5CC[C@]5(C)[C@@H](C7=CC(=O)OC7)[C@@H](O)C[C@]65O)C4)O[C@@H]3C)O[C@@H]2C)C[C@H](O)[C@@H]1O | 1.66 |
| CC(=O)OC1CC(OC2CCC3(C)C(CCC4C3CC(O)C3(C)C(C5=CC(=O)OC5)CCC43O)C2)OC(C)C1OC1CC(O)C(OC2CC(O)C(O)C(C)O2)C(C)O1 (stereo not given) | 1.71 |
| CO[C@H]1[C@H](O)[C@H](O[C@H]2CC[C@@]3(C)[C@H](CC[C@@H]4[C@@H]3CC[C@]3(C)[C@@H](C5=CC(=O)OC5)CC[C@]43O)C2)O[C@@H](C)[C@@H]1O | 2.1 |
| COC1CC(OC2CC[C@@]3(C)[C@H](CC[C@@H]4[C@H]3CC[C@]3(C)C(C5=CC(=O)OC5)C(OC(C)=O)C[C@]43O)C2)OC(C)C1O (stereo not given in full) | 2.26 |
| C[C@H]1O[C@@H](O[C@H]2CC[C@]3(C=O)[C@H]4CC[C@]5(C)[C@@H](C6=CC(=O)OC6)CC[C@]5(O)[C@@H]4CC[C@]3(O)C2)C[C@H](O)[C@@H]1O | 0.3 |

assay: method code SF-AS, from PMID: 582926

| SMILES | logP |
| --- | --- |
| C[C@@H]1O[C@@H](O[C@@H]2C=C3CC[C@@H]4[C@H](CC[C@]5(C)[C@@H](c6ccc(=O)oc6)CC[C@]45O)[C@@]3(C)CC2)[C@H](O)[C@H](O)[C@H]1O | 2.48 |
